The subject of data set [1] is monocrotaline-induced pulmonary high pressure in rats. Briefly: Monocrotaline-induced pulmonary high pressure in rats. It counts as in vivo, male Sprague-Dawley rats. Conditions: MCT 60 mg/kg s.c.; treatment bid via stomach tube days 15-28; measured day 28; lisuride 0.25 mg/kg, terguride 2.5 mg/kg; average ± SEM, N = 6. The source says: Monocrotaline (MCT) is a toxin from plants of the Crotalaria species, which damages the endothelial cells of the pulmonary arteries after a single injection in rats, with the following hypertrophy of the smooth vascular musculature and persistent severe pulmonary high pressure. The MCT-induced pulmonary hypertension in rats is a well-established and validated model of human pulmonary hypertension, and all now-approved therapeutic agents have shown an action in this model, at least when they were used before the toxically-induced tissue remodeling.
MCT (60 mg/kg) was administered subcutaneously as a single injection in male Sprague-Dawley rats, and an identical volume of isotonic common salt solution was injected into the control animals. […]
On day 28 of the experiment, two hours after the last administration of substance, the animals were narcotized with use of pentobarbital. […] The mean arterial system pressure and the systolic pressure were measured in the right heart ventricle. […]
The s.c. injection of MCT, as described above, results in severe damage of the pulmonary vascular endothelium as well as excessive production of connective tissue and development of a pulmonary hypertension. Accumulation of collagen, measured as hydroxyproline content of the pulmonary tissue and increase of the right-ventricular systolic pressure reflect the described structural and functional changes.

Data set [2] has as its system Human smooth muscle cells. The experiment in a line: 5-HT-stimulated cell growth, 3H-thymidine uptake. The data set is classed as cell-based. The following applies: 10 μmol/l test substance, 5-HT 10-8 mol/l, 24 hours; FIG. 2.
Protocol: To determine the cell growth, 3H-thymidine (Amersham) was then added to the cell cultures, and the latter were incubated for 24 hours. After the adhesion of the cells, the culture medium was replaced by a standard medium with 0.2% fetal calf serum to stop growth and incubated again for 48 hours.
In order to test antiproliferative actions of the described substances, the cell cultures were then pre-incubated first at a concentration of 10 μmol/l of the test substances. […] To measure the growth of cells, 3H-thymidine (Amersham) was then added to the cultures, and the latter was incubated for 24 hours. Then, 2 incubations were carried out in iced common salt solution with a phosphate buffer, and then a 30-minute incubation was carried out in iced 10% trichloroacetic acid at 4° C. The cells were then incubated in 0.1 molar NaOH solution (0.5 ml/incubation vessel). After neutralization with acetic acid, the 3H-thymidine uptake was measured with liquid scintillation (as 3× determination).
Data set [3] has as its system 5-HT-induced effects in rats. Conditions: cited from earlier work.
Data set [4] is described as follows: Antioxidative action / radical trap (binding of oxygen radicals).
Description: Because of the small amounts of substances contained in the samples and the short life of the reaction products, it was not possible to isolate them for structural clarification.
For data set [5], the target named is T1, 5-HT2A receptors of coronary arteries in pigs (Sus scrofa, UniProt P50129).
T1 construct: 5-HT2A-mediated contraction of the coronary arteries in pigs; from tissue; host or cells: isolated pig coronary artery
The experiment in a line: Inhibition of 5-HT2A-mediated, 5-HT-induced contraction of coronary arteries in pigs. The data set is classed as cell-based. The following applies: n in own column.
Description: (§1) In this case, the pA2 value reflects the negatively decade logarithm of the concentration of an antagonist, which makes it necessary to double the agonist concentration in order to restore the initial effect of the agonist without antagonists.

Data set [6] has as its system 5-HT2B receptors of pulmonary arteries in pigs. The experiment in a line: 5-HT-induced, 5-HT2B-mediated relaxing of PGF2α-pre-contracted pulmonary arteries in pigs (functional receptor assay). The data set is classed as cell-based. The following applies: under physiological conditions; not antagonized by maximum 5-HT concentrations.
Description: as §1
The vascular reaction in the preparations of pulmonary arteries in pigs, which are pre-contracted by means of PGF2α, were used as an assay for the specific interaction with 5-HT2B receptors (see FIG. 1A). […] Ketanserin is a standard-5HT2A antagonist, SB204741 is a standard-5-HT2B antagonist.
Data set [7] is described as follows: Stability of lisuride dissolved in water (HPL chromatogram). The following applies: room temperature, FIG. 3A.

T1 sequence (P50129 whole entry): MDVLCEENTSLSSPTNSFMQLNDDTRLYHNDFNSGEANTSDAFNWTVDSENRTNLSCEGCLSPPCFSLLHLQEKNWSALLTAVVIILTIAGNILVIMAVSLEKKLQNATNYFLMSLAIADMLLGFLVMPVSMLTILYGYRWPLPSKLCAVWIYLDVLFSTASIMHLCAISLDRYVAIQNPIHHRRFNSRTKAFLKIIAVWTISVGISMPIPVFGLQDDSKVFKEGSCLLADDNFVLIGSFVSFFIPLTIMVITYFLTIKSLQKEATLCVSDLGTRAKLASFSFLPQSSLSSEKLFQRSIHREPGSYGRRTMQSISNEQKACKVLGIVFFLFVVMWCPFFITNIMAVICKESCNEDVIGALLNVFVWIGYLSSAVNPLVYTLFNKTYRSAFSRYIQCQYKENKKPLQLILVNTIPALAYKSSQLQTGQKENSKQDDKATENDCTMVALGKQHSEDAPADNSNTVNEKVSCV

For `CCN(CC)C(=O)N[C@H]1C[C@@H]2c3cccc4[nH]cc(c34)C[C@H]2N(C)C1` [Terguride, trans-dihydrolisuride], the “Systolic Right-Ventricular Pressure (RVPsys)” value in data set [1] was 39 ± 3 mmHG. Moreover, the “cell proliferation (3H-thymidine uptake)” value in data set [2] was “Reduction of cell proliferation”. In data set [3] (rats [Hauso 2007]), the “5-HT-induced weight increase of the heart and liver” value is “prevented”; the “behavior abnormalities and fibrotic skin changes at the injection sites of 5-HT” value was “suppressed”. Further, the “development of pulmonary valve failure” value in data set [3] (rats, daily 5-HT over 4 months [Hauso 2007]) was “not detectable”. For the same compound, in data set [4], the “free oxygen radicals taken up by an individual molecule” value is “up to 4”.

Regarding `CCNC(=O)NC1C=C2c3cccc4[nH]cc(c34)CC2N(C)C1` (stereo not drawn) [N″-Monodesethyllisuride], the “5-HT2A pA2” value in data set [5] is 8.29 ± 0.03.

`CCN(CC)C(=O)N[C@H]1C=C2c3cccc4[nH]cc(c34)C[C@H]2N(C)C1` [Lisuride, 3-(9,10-didehydro-6-methylergoline-8alpha-yl)-1,1-diethylurea]: the “type of antagonism of the 5-HT2B receptor” value in data set [6] was “irreversible antagonist”. Further, in data set [7], the “stability dissolved in water” value was “quickly broken down”.

The values are drawn from patent publication US20140058108A1 (SINOXA PHARMA UG, priority 2010, published 2014).
